Like-named read-outs stand apart in the source and are kept apart here. Where only a bound is given, the exact number is not on record here.

The values that follow come from patent US10723711B2, “1,1,1-trifluoro-3-hydroxypropan-2-yl carbamate derivatives and 1,1,1-trifluoro-4-hydroxybutan-2-yl carbamate derivatives as MAGL inhibitors” (PFIZER INC., priority 2015, dated 2020).

Common to all, as to type: biochemical
The target in assay [1] is T1, human recombinant Monoacylglycerol Lipase (Homo sapiens, UniProt Q99685).
T1 sequence (Q99685 1-303): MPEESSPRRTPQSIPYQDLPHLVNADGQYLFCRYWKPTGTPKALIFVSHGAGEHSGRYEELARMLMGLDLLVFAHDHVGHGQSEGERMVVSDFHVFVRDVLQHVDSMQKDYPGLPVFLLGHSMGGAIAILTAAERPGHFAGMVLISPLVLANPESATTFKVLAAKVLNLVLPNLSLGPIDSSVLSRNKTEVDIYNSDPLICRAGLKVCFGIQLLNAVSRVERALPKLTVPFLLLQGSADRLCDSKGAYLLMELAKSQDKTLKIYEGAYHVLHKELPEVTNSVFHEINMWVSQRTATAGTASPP
The assay can be described thus: MAGL inhibition enzymatic assay, fluorogenic substrate 7-HCA, IC50 at T=0 min or after 30 minute incubation (T=30 min). To be noted: geometric mean of 2-4 determinations unless otherwise indicated. As to the method: An equal volume of 7-HCA in assay buffer with 10% DMSO was added either immediately (T=0 min) or after a 30 minute incubation (T=30 min) to initiate the reaction. […] After these dilutions, the final concentration of the test compound ranged from 3 μM to 0.03 nM. […] IC50 values were generated based on a four parameter fit model using ABASE software from IDBS.

The target of assay [2] is T1, human recombinant Monoacylglycerol Lipase. The assay can be described thus: MAGL inactivation, enzyme progress curves, kinact/KI. To be noted: from enzyme progress curves, T = 0 min protocol; geometric mean of 2-4 determinations unless otherwise indicated. As to the method:
Assessment of MAGL inhibition utilizes human recombinant Monoacylglycerol Lipase and the fluorogenic substrate 7-hydroxycoumarinyl arachidonate (7-HCA, Biomol ST-502). 400 nL of a test compound at decreasing concentration (ranging from 150 μM down to 1.5 nM) was spotted into a 384-well back plate (PerkinElmer, 6007279) using a Labcyte Echo, followed by addition of 10 μL of MAGL enzyme in assay buffer (50 mM HEPES, pH 7.4, 100 mM NaCl, 5 mM MgCl2, 0.1% Triton X-100 and 25% glycerin). An equal volume of 7-HCA in assay buffer with 10% DMSO was added either immediately (T=0 min) or after a 30 minute incubation (T=30 min) to initiate the reaction. The final concentration of MAGL enzyme was […] and 7-HCA substrate was 5 μM. After these dilutions, the final concentration of the test compound ranged from 3 μM to 0.03 nM. The reaction was allowed to progress for 60 minutes, after which the plate was read at an Ex/Em of 340/465. Percent inhibitions were calculated based on control wells containing no compound (0% inhibition) and a control compound (e.g., a MAGL inhibitor whose activity is known or was previously reported in the literature, such as one with about 100% inhibition). IC50 values were generated based on a four parameter fit model using ABASE software from IDBS. See e.g., Wang, Y. et al., “A Fluorescence-Based Assay for Monoacylglycerol Lipase Compatible with Inhibitor Screening,” Assay and Drug Development Technologies, 2008, Vol. 6 (3) pp 387-393 (reporting an assay for measuring MAGL activity).
To measure MAGL inactivation, the same protocol for the (T=0 min) MAGL inhibition IC50 assay was performed with data collected every minute to acquire enzyme progress curves at decreasing concentrations of compound.

The target in the next assay is T2, human recombinant FAAH (Homo sapiens, UniProt O00519).
T2 construct: purchased Cayman 10010183
T2 sequence (O00519 1-579): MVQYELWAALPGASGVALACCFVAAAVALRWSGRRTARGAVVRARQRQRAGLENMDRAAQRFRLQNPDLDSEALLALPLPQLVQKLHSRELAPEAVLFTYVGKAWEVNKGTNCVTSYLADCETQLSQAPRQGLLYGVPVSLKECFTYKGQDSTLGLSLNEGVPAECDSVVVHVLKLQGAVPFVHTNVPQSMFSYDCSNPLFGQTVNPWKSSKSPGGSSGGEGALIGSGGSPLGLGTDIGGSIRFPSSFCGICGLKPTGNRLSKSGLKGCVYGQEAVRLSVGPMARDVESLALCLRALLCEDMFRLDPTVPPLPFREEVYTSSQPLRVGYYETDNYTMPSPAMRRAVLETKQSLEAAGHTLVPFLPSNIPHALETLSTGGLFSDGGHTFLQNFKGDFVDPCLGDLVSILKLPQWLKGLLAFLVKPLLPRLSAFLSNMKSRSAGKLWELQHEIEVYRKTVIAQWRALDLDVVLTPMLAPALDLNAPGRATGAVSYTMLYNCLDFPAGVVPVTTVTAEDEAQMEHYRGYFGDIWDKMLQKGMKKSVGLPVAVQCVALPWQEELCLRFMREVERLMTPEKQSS
The assay can be described thus: FAAH inhibition enzymatic assay, fluorescent substrate Arachidonoyl-AMC, 30 minute incubation. Particulars: T = 30 min (30 minute incubation); geometric mean of 2-4 determinations unless otherwise indicated. On the procedure: Assessment of FAAH inhibition utilizes human recombinant FAAH and the fluorescent substrate, Arachidonoyl-AMC. 400 nL of a test compound at decreasing concentrations was spotted into a 384-well back plate (PerkinElmer, 6007279) using a Labcyte Echo, followed by addition of 10 μl of FAAH enzyme (Cayman 10010183) in assay buffer (50 mM Tris, pH 9.0, 1 mM EDTA). After a 30 minute incubation at room temperature, 10 μL of Arachidonyl-AMCA was added in assay buffer with 16% DMSO. Final concentration of FAAH enzyme was 0.0125 Units and AAMCA substrate was used at the Km of 5 μM. […] The reaction was allowed to progress for 60 minutes, after which the plate was read on a Molecular Devices FlexStation reader at an Ex/Em of 355/460. Percent inhibitions were calculated based on controls wells containing either no compound (0% inhibition) or a control compound (e.g., an FAAH inhibitor whose activity is known or was previously reported in the literature, such as one with about 100% inhibition). IC50 values were generated based on a four parameter fit model using ABASE software from IDBS.

Setting [3] is: T = 0 min (substrate added immediately), read-out: MAGL (T = 0 min) IC50.
[4] abbreviates: T = 30 min (30 minute incubation), read-out: MAGL (T = 30 min) IC50.

`CC(c1ccc(F)cc1)N1CCOC2(CCN(C(=O)O[C@H](CO)C(F)(F)F)CC2)C1` (mixture of isomers) [Example 43]: the IC50 in assay [1] (setting [3]) is 145 nM; in assay [1] (setting [4]), 13 nM; on human recombinant FAAH, above 30000 nM. The “MAGL kinact/KI” value in assay [2] is listed as 3478 1/s per M.
As for `O=C(O)C(F)(F)F.O=C(O[C@H](CO)C(F)(F)F)N1CCC2(CC1)CC(c1ccc(F)cn1)CO2` (mixture of isomers) [Example 97, (2R)-1,1,1-Trifluoro-3-hydroxypropan-2-yl 3-(5-fluoropyridin-2-yl)-1-oxa-8-azaspiro[4.5]decane-8-carboxylate, trifluoroacetate salt], the IC50 in assay [1] (setting [3]) was 192 nM; in assay [1] (setting [4]) it was 20 nM; on human recombinant FAAH, above 30000 nM. The “MAGL kinact/KI” value in assay [2] was 1897 1/s per M.
For `O=C(O[C@H](CO)C(F)(F)F)N1CCC2(CC1)CC(N1Cc3ccccc3S1(=O)=O)CO2` (mixture of isomers) [Example 101, (2R)-1,1,1-trifluoro-3-hydroxypropan-2-yl 3-(1,1-dioxido-1,2-benzothiazol-2(3H)-yl)-1-oxa-8-azaspiro[4.5]decane-8-carboxylate], in that order: 180 nM, 21 nM, 6540 nM and 2454 1/s per M.
For `Cc1ccc(CC2COC3(CCN(C(=O)O[C@H](CO)C(F)(F)F)CC3)C2)nc1` (mixture of isomers) [Example 102, (2R)-1,1,1-Trifluoro-3-hydroxypropan-2-yl 3-[(5-methylpyridin-2-yl)methyl]-1-oxa-8-azaspiro[4.5]decane-8-carboxylate], in that order: 215 nM, 26 nM, 18300 nM and 1336 1/s per M.
For `CN(C1COC2(CCN(C(=O)O[C@H](CO)C(F)(F)F)CC2)C1)S(=O)(=O)C1CCCC1` (mixture of isomers) [Example 112], in that order: 64 nM, 7 nM, above 30000 nM and 14232 1/s per M.
Turning to `CN(C1COC2(CCN(C(=O)O[C@H](CO)C(F)(F)F)CC2)C1)S(=O)(=O)C1CCC1` (mixture of isomers) [Example 113], the IC50 in assay [1] (setting [3]) is 139 nM; in assay [1] (setting [4]), 10 nM; at human recombinant FAAH, above 25500 nM. Besides, the “MAGL kinact/KI” value in assay [2] was 6254 1/s per M.
As for `CN(C1COC2(CCN(C(=O)O[C@H](CO)C(F)(F)F)CC2)C1)S(=O)(=O)c1cccnc1` (mixture of isomers) [Example 114], the IC50 in assay [1] (setting [3]) was 163 nM; in assay [1] (setting [4]), 15 nM; on human recombinant FAAH, above 30000 nM. Moreover, the “MAGL kinact/KI” value in assay [2] was 6263 1/s per M.
For `CN(C1COC2(CCN(C(=O)O[C@H](CO)C(F)(F)F)CC2)C1)S(=O)(=O)c1cncnc1` (mixture of isomers) [Example 115], in that order: 341 nM, 27 nM, above 30000 nM and 2917 1/s per M.
For `O=C(O[C@H](CO)C(F)(F)F)N1CCC2(CC1)CC(c1cccc(OC(F)(F)F)c1)CO2` (mixture of isomers) [Example 118], in that order: 2 nM, 0.4 nM, above 24800 nM and 172844 1/s per M.
For the compound `O=C(O[C@H](CO)C(F)(F)F)N1CCC2(CC1)CC(c1cccc(Cl)c1)CO2` (mixture of isomers) [Example 119], the IC50 in assay [1] (setting [3]) was 32 nM; in assay [1] (setting [4]) it was 3 nM; at human recombinant FAAH it was 3570 nM. In addition, the “MAGL kinact/KI” value in assay [2] is 23176 1/s per M.
For `O=C(O[C@H](CO)C(F)(F)F)N1CCC2(CC1)CC(c1ccc(F)nc1)CO2` (mixture of isomers) [Example 120], in that order: 166 nM, 21 nM, above 30000 nM and 1516 1/s per M.
As for `Cc1ccc(C2COC3(CCN(C(=O)O[C@H](CO)C(F)(F)F)CC3)C2)cn1` (mixture of isomers) [Example 123], the IC50 was 349 nM in assay [1] (setting [3]), 30 nM in assay [1] (setting [4]) and 24600 nM on human recombinant FAAH.
For `O=C(O[C@H](CO)C(F)(F)F)N1CCC2(CC1)CC(n1cccn1)CO2` (single isomer, unassigned) [Example 103], in that order: 334 nM, 30 nM and above 30000 nM.
With `Cc1ccc(S(=O)(=O)N2CCOC3(CCN(C(=O)O[C@H](CO)C(F)(F)F)CC3)C2)cc1Cl` [Example 59], the figures for the IC50 in assay [1] (setting [3]) and in assay [1] (setting [4]) were 15 nM and 1 nM, respectively. The “MAGL kinact/KI” value in assay [2] was 59048 1/s per M.
For `O=C(O[C@H](CO)C(F)(F)F)N1CCC2(CC1)CN(S(=O)(=O)c1ccc(F)c(Cl)c1)CCO2` [Example 60], in that order: 37 nM, 2 nM and 19870 1/s per M.
For `Cc1cnc(OC2CCN(C(=O)O[C@H](CO)C(F)(F)F)CC2)c(C)c1` [Example 61], in that order: 53 nM, 5 nM and 7304 1/s per M.
For the compound `O=C(O[C@H](CO)C(F)(F)F)N1CCC2(CC1)CN(S(=O)(=O)NCc1ccccc1)CCO2` [Example 67], the IC50 in assay [1] (setting [3]) stood at 29 nM; in assay [1] (setting [4]) it was 4 nM. The “MAGL kinact/KI” value in assay [2] is 30591 1/s per M.
For `COc1ccc(-n2ccc([C@H]3[C@@H]4CN(C(=O)O[C@H](CO)C(F)(F)F)C[C@@H]43)n2)cn1` [Example 69], in that order: 104 nM, 11 nM and 4621 1/s per M.
For `COP(=O)(OC)OC[C@@H](OC(=O)N1CCC2(CC1)CN(S(=O)(=O)c1ccc(F)cc1)CCO2)C(F)(F)F` [Example 86], in that order: 97 nM, 8 nM and 132 1/s per M.
